Literature values as cited in patent US20180116920A1, “MULTI-STEP PROCESS FOR NO PRODUCTION” (BSN medical GmbH, priority 2015, published 2018).
One block for each molecule: values may come before it.

Experiments:
[1] = generally assumed

standard redox potential (at pH 7 and 25° C.): −0.04 V
Molecule: O=C1O[C@H]([C@@H](O)CO)C(O)=C1O [ascorbic acid]

redox potential (cysteine-cystine, 25° C., pH 7.0): −0.2 Volt
Molecule: N[C@@H](CS)C(=O)O [cysteine]

Molecule: nitrogen monoxide
maximum solubility of NO in aqueous solution [1]: approximately 2 mM
